Test results reported in US12391679B2, “Benzamide-substituted bicyclic imidazo- and pyrazolo-fused -pyridine, -pyrimide, and -pyridazine compounds for treatment of inflammatory diseases” (ONCO3R Therapeutics BV, priority 2019, dated 2025).
pEC50, pIC50: −log10 of the molar value. Read-outs that look alike come from different tables or passages of the source.

Key:
SIK3 = target: T1, SIK3 (Homo sapiens, UniProt Q9Y2K2); assay: ADP-Glo kinase assay, SIK3; assay type: biochemical
T1 construct: purchased SignalChem S12-11G-100
T1 sequence (Q9Y2K2 59-365 limits assumed): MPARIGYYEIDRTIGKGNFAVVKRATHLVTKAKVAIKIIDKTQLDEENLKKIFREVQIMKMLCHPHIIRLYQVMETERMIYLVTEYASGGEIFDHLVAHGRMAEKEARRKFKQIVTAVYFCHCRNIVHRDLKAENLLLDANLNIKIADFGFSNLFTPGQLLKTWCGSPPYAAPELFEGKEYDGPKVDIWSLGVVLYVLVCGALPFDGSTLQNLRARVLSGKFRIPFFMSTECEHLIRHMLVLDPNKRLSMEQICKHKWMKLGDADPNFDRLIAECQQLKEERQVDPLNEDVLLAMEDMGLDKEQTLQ
Summary of the method: (§1)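 ADP-Glo format, luminescent. Room-temperature kinase reaction lasting 120 min, followed by ATP removal (40 min) and ADP detection (30 min); 10 μM staurosporine serves as full-inhibition control, 1% DMSO as uninhibited control.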

SIK1 = target: T2, SIK1 (Homo sapiens, UniProt P57059); assay: ADP-Glo kinase assay, SIK1; assay type: biochemical
T2 construct: purchased Carna Biosciences 02-131
T2 sequence (P57059 whole entry): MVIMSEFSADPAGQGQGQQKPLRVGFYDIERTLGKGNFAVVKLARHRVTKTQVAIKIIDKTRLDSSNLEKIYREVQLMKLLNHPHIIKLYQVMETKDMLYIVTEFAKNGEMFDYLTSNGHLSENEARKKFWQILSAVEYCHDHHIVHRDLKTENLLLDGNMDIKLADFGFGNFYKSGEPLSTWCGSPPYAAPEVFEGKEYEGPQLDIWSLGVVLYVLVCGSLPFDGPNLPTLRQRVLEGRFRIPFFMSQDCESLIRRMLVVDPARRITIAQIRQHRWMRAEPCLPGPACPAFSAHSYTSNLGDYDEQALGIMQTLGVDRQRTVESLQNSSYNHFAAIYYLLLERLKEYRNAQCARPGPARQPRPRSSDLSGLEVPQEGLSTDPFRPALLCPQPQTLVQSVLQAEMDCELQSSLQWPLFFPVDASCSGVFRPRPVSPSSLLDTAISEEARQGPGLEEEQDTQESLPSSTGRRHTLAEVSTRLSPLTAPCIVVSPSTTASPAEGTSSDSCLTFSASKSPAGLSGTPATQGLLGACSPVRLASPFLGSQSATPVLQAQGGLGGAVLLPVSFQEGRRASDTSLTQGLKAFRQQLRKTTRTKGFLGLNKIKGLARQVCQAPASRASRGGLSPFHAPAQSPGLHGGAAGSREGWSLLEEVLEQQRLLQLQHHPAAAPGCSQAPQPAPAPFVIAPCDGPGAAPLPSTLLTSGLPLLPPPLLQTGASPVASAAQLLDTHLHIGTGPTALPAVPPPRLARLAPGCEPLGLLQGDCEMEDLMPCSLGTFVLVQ
Summary of the method: as §1

[1] = test system: LPS-induced TNFα in monocytes; assay: Monocytes assay: LPS-triggered TNFα (ELISA); assay type: cell-based, human; settings: LPS-triggered TNFα inhibition
Summary of the method: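 TNFα secretion was triggered with 200 ng/mL LPS for 4 h in human blood CD14+ monocytes after 1 h compound pretreatment at 37 °C, with 0.2% final DMSO. Supernatants were analysed by streptavidin-HRP/luminol ELISA, and percentage inhibition at each concentration was derived relative to control wells.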

SIK2 = target: T3, SIK2 (Homo sapiens, UniProt Q9H0K1); assay: ADP-Glo kinase assay, SIK2; assay type: biochemical
T3 construct: purchased ThermoFisher Scientific PV4792
T3 sequence (Q9H0K1 whole entry): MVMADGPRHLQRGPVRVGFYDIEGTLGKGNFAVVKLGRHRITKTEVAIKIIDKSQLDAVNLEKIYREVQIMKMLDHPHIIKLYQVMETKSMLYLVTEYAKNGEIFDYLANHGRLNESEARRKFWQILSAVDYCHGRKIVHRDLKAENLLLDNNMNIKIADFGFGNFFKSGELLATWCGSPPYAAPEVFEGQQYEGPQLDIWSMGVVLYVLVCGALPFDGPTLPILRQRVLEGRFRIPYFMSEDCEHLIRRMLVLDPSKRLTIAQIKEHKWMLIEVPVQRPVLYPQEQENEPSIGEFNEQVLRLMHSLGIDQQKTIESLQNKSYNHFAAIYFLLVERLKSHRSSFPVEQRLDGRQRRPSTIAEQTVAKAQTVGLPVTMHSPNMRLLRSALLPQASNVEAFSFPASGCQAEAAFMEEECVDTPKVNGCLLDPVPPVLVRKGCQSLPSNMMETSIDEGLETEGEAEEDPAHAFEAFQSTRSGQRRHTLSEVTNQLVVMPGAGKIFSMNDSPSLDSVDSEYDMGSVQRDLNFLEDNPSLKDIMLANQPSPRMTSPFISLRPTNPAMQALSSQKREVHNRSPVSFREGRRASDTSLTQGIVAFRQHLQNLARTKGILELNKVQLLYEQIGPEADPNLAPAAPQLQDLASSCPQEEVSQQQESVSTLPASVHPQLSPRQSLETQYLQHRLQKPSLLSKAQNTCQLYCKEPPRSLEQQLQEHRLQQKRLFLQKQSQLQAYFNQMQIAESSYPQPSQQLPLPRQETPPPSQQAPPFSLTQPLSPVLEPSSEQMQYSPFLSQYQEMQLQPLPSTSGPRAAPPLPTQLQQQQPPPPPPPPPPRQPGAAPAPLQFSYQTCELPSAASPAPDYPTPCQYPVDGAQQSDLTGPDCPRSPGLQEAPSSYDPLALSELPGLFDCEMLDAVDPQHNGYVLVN
Summary of the method: as §1

[2] = ADP-Glo, AMARA 45 μM, 5 μM ATP, 120 min, average IC50

COc1cc(-c2cnc3cc([C@@](C)(O)C4CC4)ccn23)cc(OC(F)F)c1C(=O)NC1CC1 (single isomer, unassigned) [Cpd 162, N-cyclopropyl-4-[7-(1-cyclopropyl-1-hydroxy-ethyl)imidazo[1,2-a]pyridin-3-yl]-2-(difluoromethoxy)-6-methoxy-benzamide]
pIC50 (SIK3): 7.00 to 8.00
pIC50 (SIK1): < 6.30
pEC50 ([1]; Homo sapiens, Monocyte): 6.00 to 7.00
pIC50 (SIK2): < 6.30

COc1cc(-c2cnc3cc([C@@](C)(O)C4CC4)ccn23)cc(OC(F)F)c1C(=O)NC1CC1 (single isomer, unassigned) [Cpd 163, N-cyclopropyl-4-[7-(1-cyclopropyl-1-hydroxy-ethyl)imidazo[1,2-a]pyridin-3-yl]-2-(difluoromethoxy)-6-methoxy-benzamide]
pIC50 (SIK3; [2]): 7.00 to 8.00
pIC50 (SIK1; [2]): < 6.30
pEC50 [1]: 6.00 to 7.00
pIC50 (SIK2; [2]): < 6.30

CC[C@](C)(O)c1ccn2c(-c3cc(OC)c(C(=O)NC4CC4)c(OC(F)F)c3)cnc2c1 (single isomer, unassigned) [Cpd 164, N-cyclopropyl-2-(difluoromethoxy)-4-[7-(1-hydroxy-1-methyl-propyl)imidazo[1,2-a]pyridin-3-yl]-6-methoxy-benzamide]
pIC50 (SIK3): 7.00 to 8.00
pIC50 (SIK1): < 6.30
pEC50 ([1]; Homo sapiens, Monocyte): 6.00 to 7.00
pIC50 (SIK2): < 6.30

CC[C@](C)(O)c1ccn2c(-c3cc(OC)c(C(=O)NC4CC4)c(OC(F)F)c3)cnc2c1 (single isomer, unassigned) [Cpd 165, N-cyclopropyl-2-(difluoromethoxy)-4-[7-(1-hydroxy-1-methyl-propyl)imidazo[1,2-a]pyridin-3-yl]-6-methoxy-benzamide]
pIC50 (SIK3; [2]): 7.00 to 8.00
pIC50 (SIK1; [2]): < 6.30
pEC50 [1]: 6.00 to 7.00
pIC50 (SIK2; [2]): < 6.30

COc1cc(-c2cnc3cc([C@@](C)(C#N)CO)ccn23)cc(OC(F)F)c1C(=O)NC1CC1 (single isomer, unassigned) [Cpd 189, 4-[7-(1-cyano-2-hydroxy-1-methyl-ethyl)imidazo[1,2-a]pyridin-3-yl]-N-cyclopropyl-2-(difluoromethoxy)-6-methoxy-benzamide]
pIC50 (SIK3): 7.00 to 8.00
pIC50 (SIK1): < 6.30
pEC50 [1]: 6.00 to 7.00
pIC50 (SIK2): < 6.30

COc1cc(-c2cnc3cc([C@@](C)(C#N)CO)ccn23)cc(OC(F)F)c1C(=O)NC1CC1 (single isomer, unassigned) [Cpd 190, 4-[7-(1-cyano-2-hydroxy-1-methyl-ethyl)imidazo[1,2-a]pyridin-3-yl]-N-cyclopropyl-2-(difluoromethoxy)-6-methoxy-benzamide]
pIC50 (SIK3; [2]): 7.00 to 8.00
pIC50 (SIK1; [2]): < 6.30
pEC50 [1]: 5.30 to 6.00
pIC50 (SIK2; [2]): < 6.30

COc1cc(-c2cnn3cc(C(C)(C)C#N)ccc23)cc(OC(F)F)c1C(=O)N[C@@H]1C[C@H]1F (single isomer, unassigned) [Cpd 257, 4-[6-(1-cyano-1-methyl-ethyl)pyrazolo[1,5-a]pyridin-3-yl]-2-(difluoromethoxy)-N-(2-fluorocyclopropyl)-6-methoxy-benzamide]
pEC50 ([1]; Homo sapiens, Monocyte): 6.00 to 7.00

COc1cc(-c2cnn3cc(C(C)(C)C#N)ccc23)cc(OC(F)F)c1C(=O)N[C@@H]1C[C@H]1F (single isomer, unassigned) [Cpd 258, 4-[6-(1-cyano-1-methyl-ethyl)pyrazolo[1,5-a]pyridin-3-yl]-2-(difluoromethoxy)-N-(2-fluorocyclopropyl)-6-methoxy-benzamide]
pEC50 [1]: 6.00 to 7.00

COc1cc(-c2cnc3cc(C(C)(C)C#N)ccn23)cc(OC(F)F)c1C(=O)NC1CC1 [Cpd 19, 4-[7-(1-cyano-1-methyl-ethyl)imidazo[1,2-a]pyridin-3-yl]-N-cyclopropyl-2-(difluoromethoxy)-6-methoxy-benzamide]
pIC50 (SIK3): 8.00 to 11.00
pIC50 (SIK1): < 6.30
pEC50 ([1]; Homo sapiens, Monocyte): 6.00 to 7.00
pIC50 (SIK2): < 6.30

CCC(C)(C#N)c1ccn2c(-c3cc(OC)c(C(=O)NC4CC4)c(OC(F)F)c3)cnc2c1 (stereo not drawn) [Cpd 27, 4-[7-(1-cyano-1-methyl-propyl)imidazo[1,2-a]pyridin-3-yl]-N-cyclopropyl-2-(difluoromethoxy)-6-methoxy-benzamide]
pIC50 (SIK3): 7.00 to 8.00
pIC50 (SIK1): < 6.30
pEC50 ([1]; Homo sapiens, Monocyte): 6.00 to 7.00
pIC50 (SIK2): < 6.30

COc1cc(-c2cnc3cc(C(C)(C)C#N)ccn23)cc(OC)c1C(=O)NC1CC1 [Cpd 28, 4-[7-(1-cyano-1-methyl-ethyl)imidazo[1,2-a]pyridin-3-yl]-N-cyclopropyl-2,6-dimethoxy-benzamide]
pIC50 (SIK3): 7.00 to 8.00
pIC50 (SIK1): < 6.30
pEC50 ([1]; Homo sapiens, Monocyte): 6.00 to 7.00
pIC50 (SIK2): < 6.30

COc1cc(-c2cnc3cc(C4(C#N)CC4)ccn23)cc(OC(F)F)c1C(=O)NC1CC1 [Cpd 33, 4-[7-(1-cyanocyclopropyl)imidazo[1,2-a]pyridin-3-yl]-N-cyclopropyl-2-(difluoromethoxy)-6-methoxy-benzamide]
pIC50 (SIK3): 8.00 to 11.00
pIC50 (SIK1): 6.30 to 7.00
pEC50 ([1]; Homo sapiens, Monocyte): 7.00 to 10.00
pIC50 (SIK2): 7.00 to 8.00

COc1cc(-c2cnc3cc(C(C)(C)O)ccn23)cc(OC(F)F)c1C(=O)NC1CC1 [Cpd 35, N-cyclopropyl-2-(difluoromethoxy)-4-[7-(1-hydroxy-1-methyl-ethyl)imidazo[1,2-a]pyridin-3-yl]-6-methoxy-benzamide]
pIC50 (SIK3): 7.00 to 8.00
pIC50 (SIK1): < 6.30
pEC50 ([1]; Homo sapiens, Monocyte): 6.00 to 7.00
pIC50 (SIK2): < 6.30

COc1cc(-c2cnc3cc(C(C)(C)C#N)ccn23)cc(OC(F)F)c1C(=O)NCC1CC1 [Cpd 39, 4-[7-(1-cyano-1-methyl-ethyl)imidazo[1,2-a]pyridin-3-yl]-N-(cyclopropylmethyl)-2-(difluoromethoxy)-6-methoxy-benzamide]
pIC50 (SIK3): 8.00 to 11.00
pIC50 (SIK1): < 6.30
pEC50 ([1]; Homo sapiens, Monocyte): 6.00 to 7.00
pIC50 (SIK2): < 6.30

COc1cc(-c2cnc3cc(C4CN(C(C)=O)C4)ccn23)cc(OC(F)F)c1C(=O)NC1CC1 [Cpd 63, 4-[7-(1-acetylazetidin-3-yl)imidazo[1,2-a]pyridin-3-yl]-N-cyclopropyl-2-(difluoromethoxy)-6-methoxy-benzamide]
pIC50 (SIK3): 8.00 to 11.00
pIC50 (SIK1): 6.30 to 7.00
pEC50 ([1]; Homo sapiens, Monocyte): 6.00 to 7.00
pIC50 (SIK2): 7.00 to 8.00

COc1cc(-c2cnc3cc(C4CCCN(C(=O)OC(C)(C)C)C4)ccn23)cc(OC(F)F)c1C(=O)NC1CC1 (stereo not drawn) [Cpd 64, tert-butyl 3-[3-[4-(cyclopropylcarbamoyl)-3-(difluoromethoxy)-5-methoxy-phenyl]imidazo[1,2-a]pyridin-7-yl]piperidine-1-carboxylate]
pIC50 (SIK3): 8.00 to 11.00
pIC50 (SIK1): < 6.30
pEC50 ([1]; Homo sapiens, Monocyte): 6.00 to 7.00
pIC50 (SIK2): 6.30 to 7.00

COc1cc(-c2cnc3cc(C(C)(C)C#N)ccn23)cc(OC(F)F)c1C(=O)N1CC(F)(F)C1 [Cpd 69, 2-[3-[4-(3,3-difluoroazetidine-1-carbonyl)-3-(difluoromethoxy)-5-methoxy-phenyl]imidazo[1,2-a]pyridin-7-yl]-2-methyl-propanenitrile]
pIC50 (SIK3): 8.00 to 11.00
pIC50 (SIK1): < 6.30
pEC50 ([1]; Homo sapiens, Monocyte): 6.00 to 7.00
pIC50 (SIK2): < 6.30

COc1cc(-c2cnc3cc(C(C)(C)C#N)ccn23)cc(OC(F)F)c1C(=O)NCC(F)F [Cpd 70, 4-[7-(1-cyano-1-methyl-ethyl)imidazo[1,2-a]pyridin-3-yl]-N-(2,2-difluoroethyl)-2-(difluoromethoxy)-6-methoxy-benzamide]
pIC50 (SIK3): 8.00 to 11.00
pIC50 (SIK1): < 6.30
pEC50 ([1]; Homo sapiens, Monocyte): 6.00 to 7.00
pIC50 (SIK2): < 6.30

COc1cc(-c2cnc3cc(C(C)(C)C#N)ccn23)cc(OC(F)F)c1C(=O)N1CC(C#N)C1 [Cpd 77, 1-[4-[7-(1-cyano-1-methyl-ethyl)imidazo[1,2-a]pyridin-3-yl]-2-(difluoromethoxy)-6-methoxy-benzoyl]azetidine-3-carbonitrile]
pIC50 (SIK3): 8.00 to 11.00
pIC50 (SIK1): < 6.30
pEC50 ([1]; Homo sapiens, Monocyte): 6.00 to 7.00
pIC50 (SIK2): < 6.30

COc1cc(-c2cnc3cc(C(C)(C)C#N)ccn23)cc(OC(F)F)c1C(=O)N[C@@H]1C[C@@H]1F [Cpd 79, 4-[7-(1-cyano-1-methyl-ethyl)imidazo[1,2-a]pyridin-3-yl]-2-(difluoromethoxy)-N-[(1R,2S)-2-fluorocyclopropyl]-6-methoxy-benzamide]
pIC50 (SIK3): 8.00 to 11.00
pIC50 (SIK1): < 6.30
pEC50 ([1]; Homo sapiens, Monocyte): 7.00 to 10.00
pIC50 (SIK2): 6.30 to 7.00

COc1cc(-c2cnc3cc(C(C)(C)CN)ccn23)cc(OC(F)F)c1C(=O)NC1CC1 [Cpd 93, 4-[7-(2-amino-1,1-dimethyl-ethyl)imidazo[1,2-a]pyridin-3-yl]-N-cyclopropyl-2-(difluoromethoxy)-6-methoxy-benzamide]
pIC50 (SIK3): 7.00 to 8.00
pIC50 (SIK1): < 6.30
pEC50 ([1]; Homo sapiens, Monocyte): 6.00 to 7.00
pIC50 (SIK2): < 6.30

COc1cc(-c2cnn3cc(C4CCOCC4)cnc23)cc(OC(F)F)c1C(=O)NC1CC1 [Cpd 95, N-cyclopropyl-2-(difluoromethoxy)-6-methoxy-4-(6-tetrahydropyran-4-ylpyrazolo[1,5-a]pyrimidin-3-yl)benzamide]
pIC50 (SIK3): 8.00 to 11.00
pIC50 (SIK1): < 6.30
pEC50 ([1]; Homo sapiens, Monocyte): 6.00 to 7.00
pIC50 (SIK2): 6.30 to 7.00

COc1cc(-c2cnn3cc(C(C)(C)C#N)ccc23)cc(OC(F)F)c1C(=O)N[C@@H]1C[C@@H]1F [Cpd 219, 4-[6-(1-cyano-1-methyl-ethyl)pyrazolo[1,5-a]pyridin-3-yl]-2-(difluoromethoxy)-N-[(1R,2S)-2-fluorocyclopropyl]-6-methoxy-benzamide]
pEC50 ([1]; Homo sapiens, Monocyte): 7.00 to 10.00

[2H]C([2H])([2H])C(C#N)(c1ccc2c(-c3cc(OC)c(C(=O)N[C@@H]4C[C@@H]4F)c(OC(F)F)c3)cnn2c1)C([2H])([2H])[2H] [Cpd 275, 4-[6-[1-cyano-2,2,2-trideuterio-1-(trideuteriomethyl)ethyl]pyrazolo[1,5-a]pyridin-3-yl]-2-(difluoromethoxy)-N-[(1R,2S)-2-fluorocyclopropyl]-6-methoxy-benzamide]
pEC50 ([1]; Homo sapiens, Monocyte): 6.00 to 7.00
